Reference: PMC12473014, “Granzyme B PET Imaging Enables Early Assessment of Immunotherapy Response in a Humanized Melanoma Mouse Model” (Pharmaceuticals, 2025)
Where two headings read alike, the source gives them in different places.

Assays:
[1] = target: T1, active human GZB (Homo sapiens, UniProt P10144); test: PET/CT liver uptake (LBR) in humanized NSG mice with G361 melanoma; type: in vivo; conditions: for liver-to-blood ratio (LBR): n = 8, mean ± SEM
Experimental: (§1) Human melanoma G361 (ATCC®) cells were cultured in McCoy’s Medium (Thermo-Fisher, Waltham, MA, USA) supplemented with 10% fetal bovine serum (Thermo-Fisher) and 1% penicillin–streptomycin (Thermo-Fisher) at 37 °C with 5% CO2. The mice were then subcutaneously (s.c.) implanted with 2 × 10^6 G361 cells suspended in Matrigel and 100 µL of phosphate-buffered saline (Sigma-Aldrich, St. […] To estimate the tumor volume, both the longest and shortest perpendicular diameters were measured. These measurements were then combined using a standard method commonly employed in preclinical studies to approximate the tumor volume, providing a reliable estimate of the three-dimensional tumor size. Four days after tumor implantation, the tumors measured 336 ± 38 mm^3. The mice were then randomly assigned to receive three doses at three-day intervals of either 200 µg/100 µg of an anti-PD1/CTLA4 combination therapy (combination group, n = 15), 200 µg of anti-PD1 as a monotherapy (monotherapy group, n = 15), or a vehicle solution (controls, n = 12) via an intraperitoneal (i.p.) injection. A subset of mice (combination: n = 8, monotherapy: n = 9, controls: n = 6) underwent PET/CT imaging before treatment (baseline), as well as 4 days (timepoint 2), 1 week (timepoint 3), and 2 weeks (timepoint 4) after the treatment began (Figure 7). ^68Gallium was obtained by eluting a ^68Ga/^68Ge generator (Eckert and Ziegler, Berlin, Germany) with 0.1 molar HCl. A total of 2 mL of eluted ^68gallium was mixed with 100 µL of NOTA-CYT-200, stored in a stock solution of 1 mg/mL of metal-free water (OmniTrace Ultra, Millipore, Burlington, MA, USA) and two molar HEPES buffer to adjust the pH to 3.5–4.0. The reaction was incubated at 95 °C for 10 min. The mixture was then adjusted to a pH of 7.0 using sodium hydroxide (NaOH) before being administered intravenously via the tail vein. A total of 3.96 MBq ± 0.81 of ^68Ga-NOTA-CYT-200 was injected 60 ± 5 min prior to PET/CT acquisition. The PET/CT images were acquired in static mode using a small animal Argus PET/CT scanner (Sedecal, Madrid, Spain) in two bed positions over 20 min. The PET images were reconstructed using (2 iterations and 16 subsets) 2D-OSEM and corrected for randoms and scatter. Post-acquisition, the PET/CT images were analyzed by two blinded investigators using the VivoQuant™ software, version 4.0 (InVicro). Standard uptake values (SUVs) for the tumor, liver, and colon were normalized to the blood pool activity measured by drawing a region of interest around the left ventricle of the heart, yielding target-to-background ratios (TBR for tumor, LBR for liver, and CBR for colon). This normalization accounts for the nonspecific background signal and enables a comparison of the uptake across the groups and imaging timepoints. Prism (version 9.2; GraphPad) was used to perform quantitative data analyses. The data are presented as the mean ± SEM. The means of the two groups were compared using unpaired Student’s t-tests when appropriate.

[2] = in vivo; set-up: species or system NSG mice; conditions: mouse; for tissue uptake at 1 h: NSG, iv, total radioactivity
Experimental: The ^68Ga-NOTA-CYT-200 biodistribution was evaluated for each treatment group four days after the initial dose. Major organs, such as the tumor, heart, lungs, liver, spleen, stomach, pancreas, intestines, kidneys, muscles, bones, skin, and brain from each mouse, were excised exactly one hour after the i.v. administration of 52.83 µCi ± 0.87 (controls, n = 3), 41.83 µCi ± 5.93 (mono, n = 4), or 34.65 µCi ± 3.82 (combination, n = 4) ^68Ga-NOTA-CYT-200. Each organ was weighed individually before measuring the activity with an automatic gamma counter (PerkinElmer Wallac Wizard 2480, Waltham, MA, USA).

[3] = target: T1, active human GZB; test: PET/CT intestinal/colon uptake (CBR) in humanized NSG mice with G361 melanoma; type: in vivo; conditions: mean ± SEM
Experimental: as §1

[4] = test system: active human GZB protein; test: PET uptake in subcutaneous Matrigel implants with or without active GZB (in vivo specificity); conditions: n = 8, SUV normalized to blood pool, 1 h after i.v. 4.39 MBq, mean ± SEM
Experimental: (§2) NOTA-CYT-200 was synthesized (CytoSite Biopharma, Sudbury, MA, USA) with a high chemical purity (>95%) and characterized using mass spectrometry. We performed a fluorometric human GZB activity assay (ab157403) to determine the inhibitor constant (Ki) of NOTA-CYT-200 for active human GZB enzyme activity in vitro. NOTA-CYT-200 was serially diluted with GZB assay buffer, starting from 5000 to 0.00002048 nanomolar. Each dilution was combined with 0.1 µg/µL of active GZB protein (ab285779) and the provided fluorophore. Each well contained a total volume of 50 µL, and all the samples were tested in duplicate using a microplate reader in kinetic mode (BioTek Cytation5, Winooski, VT, USA) after 90 min of incubation at 27 °C. The in vivo specificity of NOTA-CYT-200 labeled with 68gallium (^68Ga-NOTA-CYT-200) for the active human GZB protein was evaluated in non-tumor-bearing naive NSG mice (n = 8) following a subcutaneous injection of 80 µL of Matrigel alone (Corning™ Matrigel™ Membrane Matrix) or 65 µL of Matrigel containing 15 µL of active human GZB protein (0.05 µg/µL, totaling 0.75 µg GZB) into each animal’s shoulder. […] The uptake of ^68Ga-NOTA-CYT-200, measured as standard uptake values (SUVs) within the implanted regions, was assessed using the VivoQuant™ software, version 4.0 (InVicro, Needham, MA, USA). […]

[5] = target: T1, active human GZB; type: in vivo; conditions: for mean TBR: mean ± SEM
Experimental: as §1

[6] = target: T1, active human GZB; test: Fluorometric human GZB enzymatic inhibition assay (ab157403); type: biochemical; set-up: Each dilution was combined with 0.1 µg/µL of active GZB protein (ab285779); purchased ab285779; conditions: 0.1 µg/µL active GZB, 5000 to 0.00002048 nM, 50 µL, duplicate, kinetic mode after 90 min at 27 °C, CI: 2.95–5.98, read-out: inhibition constant (Ki)
Experimental: as §2

T1 sequence (P10144 21-247): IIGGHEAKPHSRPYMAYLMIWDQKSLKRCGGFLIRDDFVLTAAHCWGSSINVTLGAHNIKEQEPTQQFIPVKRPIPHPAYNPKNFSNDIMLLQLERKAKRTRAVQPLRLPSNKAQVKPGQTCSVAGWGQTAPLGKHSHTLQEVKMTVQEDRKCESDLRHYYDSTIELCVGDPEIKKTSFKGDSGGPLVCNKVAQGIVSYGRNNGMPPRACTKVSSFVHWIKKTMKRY

CC[C@H](C)[C@H](NC(=O)CNC(=O)CNC(=O)[C@H](CCC(=O)O)NC(=O)Cc1ccc(CC2CN(CC(=O)O)CCN(CC(=O)O)CCN2CC(=O)O)cc1)C(=O)N[C@H]1CCc2cccc3c2N(C1=O)[C@H](C(=O)N[C@H]1CC(=O)OC1O)C3 (stereo partly shown) [^68Ga-NOTA-CYT-200, metal not drawn]
liver-to-blood ratio (LBR) ([1]; baseline, combination): 2.98 ± 0.34
liver-to-blood ratio (LBR) ([1]; day 4, combination, p < 0.0001 vs baseline): 6.93 ± 1.04
LBR change versus baseline ([1]; day 4, monotherapy, n = 9, p = 0.023): significant LBR increase on day 4 versus baseline
liver-to-blood ratio (LBR) ([1]; day 7, combination, p < 0.0001 vs baseline): 7.16 ± 1.03
liver-to-blood ratio (LBR) ([1]; day 14, combination, p = 0.91 vs baseline, p = 0.0004 and 0.0001 vs days 4 and 7): 3.52 ± 0.27
LBR change versus baseline ([1]; days 7 and 14, monotherapy, n = 9, p = 0.93 and p = 0.71): remained comparable to baseline
LBR change versus baseline ([1]; post-treatment timepoints, controls, n = 6, p 0.43 to 0.71): none of the post-treatment LBR values were significantly different from baseline
tissue uptake at 1 h ([2]; 41.83 uCi, kidney uptake): 1.47 ± 0.37 %ID/g
tissue uptake at 1 h ([2]; 41.83 uCi, tumor uptake): 0.25 ± 0.06 %ID/g
tissue uptake at 1 h ([2]; 52.83 uCi, intestinal uptake): 0.17 ± 0.13 %ID/g
tissue uptake at 1 h ([2]; 52.83 uCi, kidney uptake): 1.32 ± 0.84 %ID/g
tissue uptake at 1 h ([2]; 52.83 uCi, tumor uptake): 0.12 ± 0.03 %ID/g
main organ of tracer elimination [2]: kidney as the main organ responsible for tracer elimination
intestinal/colon-to-blood ratio (CBR) ([3]; baseline, combination, n = 8): 3.5 ± 0.62
intestinal/colon-to-blood ratio (CBR) ([3]; baseline, controls, n = 6): 2.11 ± 0.56
intestinal/colon-to-blood ratio (CBR) ([3]; baseline, monotherapy, n = 9): 2.68 ± 0.43
intestinal/colon-to-blood ratio (CBR) ([3]; day 4, combination, n = 8, p = 0.029 vs baseline): 6.81 ± 1.21
intestinal/colon-to-blood ratio (CBR) ([3]; day 4, monotherapy, n = 9, p = 0.07 vs baseline): 5.41 ± 0.98
intestinal/colon-to-blood ratio (CBR) ([3]; day 7, combination, n = 8, p = 0.96 vs baseline): 6.21 ± 1.23
intestinal/colon-to-blood ratio (CBR) ([3]; day 7, monotherapy, n = 9, p = 0.8 vs baseline): 3.75 ± 0.57
intestinal/colon-to-blood ratio (CBR) ([3]; day 14, combination, n = 8, p = 0.99 vs baseline): 4.09 ± 0.97
intestinal/colon-to-blood ratio (CBR) ([3]; day 14, monotherapy, n = 9, p = 0.99 vs baseline): 2.25 ± 0.36
radiotracer uptake in implant ([4]; Matrigel containing active GZB protein (0.75 µg), p = 0.0045 vs Matrigel without protein): 6.18 ± 2.92
radiotracer uptake in implant ([4]; Matrigel without the protein): 2.48 ± 1.01
mean TBR ([5]; baseline, combination (anti-PD1/CTLA4), n = 8): 1.47 ± 0.2
mean TBR ([5]; baseline, monotherapy (anti-PD1), n = 9): 1.25 ± 0.17
off-target binding in tumors of the control group ([5]; control group (vehicle)): some off-target binding
highest TBR on day 4 or day 7 ([5]; controls, n = 6): 1.75 ± 0.39
TBR, responder analysis ([5]; day 4, treatment non-responders (TNRs), n = 6, p = 0.02 vs controls): 2.7 ± 0.9
TBR, responder analysis ([5]; day 4, treatment responders (TRs), n = 3, p < 0.0001 vs controls): 4.0 ± 1.2
mean TBR ([5]; day 4 after treatment start, combination (anti-PD1/CTLA4), n = 8, p < 0.0001 vs controls, p = 0.027 vs monotherapy): 3.88 ± 0.47
mean TBR ([5]; day 4 after treatment start, controls (vehicle), n = 6): 1.15 ± 0.13
mean TBR ([5]; day 4 after treatment start, monotherapy (anti-PD1), n = 9, p = 0.0005 vs controls): 2.84 ± 0.3
mean TBR ([5]; day 7, combination (anti-PD1/CTLA4), n = 8, p = 0.0052 vs monotherapy, p = 0.0003 vs controls): 3.5 ± 0.48
mean TBR ([5]; day 7, controls (vehicle), n = 6): 1.69 ± 0.2
mean TBR ([5]; day 7, monotherapy (anti-PD1), n = 9, p = 0.59 vs controls): 2.14 ± 0.11
mean TBR ([5]; day 14, combination (anti-PD1/CTLA4), n = 8, p = 0.01 vs monotherapy, p = 0.05 vs controls): 3.05 ± 0.43
mean TBR ([5]; day 14, controls (vehicle), n = 6): 1.97 ± 0.28
mean TBR ([5]; day 14, monotherapy (anti-PD1), n = 9, p = 0.88 vs controls): 1.75 ± 0.15
inhibition of the inflammatory response to immunotherapy by tracer injection ([5]; in vivo): did not observe any obvious inhibition of the inflammatory response to immunotherapy
highest TBR on day 4 or day 7 ([5]; treatment non-responders (TNRs), n = 6, p = 0.175 vs controls): 2.73 ± 0.88
highest TBR on day 4 or day 7 ([5]; treatment responders (TRs), n = 3, p = 0.0002 vs controls, p = 0.0109 vs TNRs): 4.28 ± 1.20

CC[C@H](C)[C@H](NC(=O)CNC(=O)CNC(=O)[C@H](CCC(=O)O)NC(=O)Cc1ccc(CC2CN(CC(=O)O)CCN(CC(=O)O)CCN2CC(=O)O)cc1)C(=O)N[C@H]1CCc2cccc3c2N(C1=O)[C@H](C(=O)N[C@H]1CC(=O)OC1O)C3 (stereo partly shown) [NOTA-CYT-200]
Ki [6]: 4.2 nM
